Measurements reported in PubChem BioAssay AID1963851 (Molecular Pharmacology Branch, DTP, NCI, 2024).

Test system: 188146-221-R-J1-PDC complex spheroid viability
Experiment: Anticancer human tumor 188146-221-R-J1-PDC patient-derived colon adenocarcinoma cell line growth inhibition [POLQ]
Settings: for IC50: curve of first compound; for viability, T/C: stronger effect = lower value
Method: Multicellular complex tumor spheroid response to Polymerase (POL) inhibitors (novobiocin, ART-558, RP6685) in combination with a variety of drugs and investigational agents in selected tumor cell lines
The POL inhibitors (novobiocin, ART-558, and RP6685) were evaluated both individually and in combination with standard of care and investigational anticancer small molecules within a complex spheroid model of solid tumors. . Complex spheroids include a stromal component modeled by human endothelial cells (HUVEC) and fibroblasts modeled by human mesenchymal stem cells (MSCs). The concentration ranges selected for each drug and investigational agent were based upon clinically achievable concentrations if the clinical Cmax of the agent was known.
Compounds. The drugs and investigational agents: novobiocin (NSC847541), ART-558 (NSC835418), RP-6685 (NSC848927), peposertib (NSC802822), ceralasertib (NSC780249), elimusertib (NSC800525), camonsertib (NSC841442), AZD-1390 (NSC803789), olaparib (NSC753686), talazoparib (NSC767125), rucaparib (NSC756644), sotorasib (NSC818433), MRTX-1133 (NSC836407), SN-38 (NSC673596), topotecan (NSC609699), epotoside (NSC141540), doxorubicin (NSC123127), gemcitabine (NSC613327), 5-fluorouracil (NSC19893), paclitaxel (NSC125973), vemurafenib (NSC761431), MSA-2 (NSC828583), SN-011 (NSC837082), adavosertib (NSC754352), prexasertib (NSC758257), carboplatin (NSC241240) and oxaliplatin (NSC266046), were obtained from the National Cancer Institute (NCI) Developmental Therapeutics Program Chemical Repository (21). The FDA-approved anticancer drug set is available from the Developmental Therapeutics Program at https://dtp.cancer.gov/organization/dscb/obtaining/. […] The stock solutions were prepared in dimethyl sulfoxide (DMSO, Sigma-Aldrich, St. Louis, MO, cat. D2650), except for the platinum compounds which were prepared in saline (Quality Biological, Gaithersburg, MD, cat. 114-055-101), at 800-fold the tested concentration and stored at -70 degrees C prior to their use. All drugs and investigational agents were tested over a range starting from a high concentration at or near the clinical Cmax and decreasing in half-log increments. If the clinical Cmax for an agent had not been determined, the highest concentration tested was 10 microM, except for SN-38, which was tested at a high concentration of 1 microM.
Cell Culture. All cells were maintained in an incubator at 37 degrees C and 5% CO2 with 95% humidity. The PDC lines were cultured according to standard operating procedures established by the NCI PDMR (https://pdmr.cancer.gov). Table 3 of the manuscript, lists the cell lines along with the number of the three cell types plated to form the mct-spheroids and media for tumor cell growth. After thawing, all PDC lines, except 997537-175-T-J1-PDC and 415267-285-R-J2-PDC, were cultured in Matrigel-coated flasks prepared with a working solution of 1X Ham's F-12 nutrient mix, without supplementation (Thermo Fisher Scientific, cat. 11765054), 100 U/mL penicillin-streptomycin (Thermo Fisher Scientific, cat. 15140122), and 2.5% Matrigel (Corning Inc., Corning, NY, cat. 354248) for the first three passages. The two PDC lines 997537-175-T-J1-PDC and 415267-285-R-J2-PDC were cultured on uncoated flasks. The 857933-349-R-J2-PDC line was cultured in 6C/Colon 1B media containing advanced DMEM/F-12 (Thermo Fisher Scientific, cat. 12634028), 10 mM HEPES (Thermo Fisher Scientific, cat. 15630080), 1X GlutaMAX supplement (Thermo Fisher Scientific, cat. 35050061), 0.1 mg/mL primocin (InvivoGen, San Diego, CA, cat. ant-pm-2), 10% defined fetal bovine serum, heat inactivated (HyClone Laboratories Inc., Logan, UT, cat. SH30070.03HI), 50% L-WRN conditioned media (ATCC, cat. CRL-3276), 1.25 mM N-Acetyl-L-cysteine (Sigma-Aldrich, cat. A9165), 10 mM nicotinamide (Sigma-Aldrich, cat. N0636), 1X B-27 supplement (Thermo Fisher Scientific, cat. 17504044), 1X N-2 supplement (Thermo Fisher Scientific, cat. […]

[1] = second compound 0.0316 µM, first compound 0.0316 µM
[2] = second compound 0.0316 µM, first compound 0.1 µM
[3] = second compound 0.0316 µM, first compound 0.316 µM
[4] = second compound 0.0316 µM, first compound 1 µM
[5] = second compound 0.0316 µM, first compound 3.16 µM
[6] = second compound 0.0316 µM, first compound 10 µM
[7] = second compound 0.1 µM, first compound 0.0316 µM
[8] = second compound 0.1 µM, first compound 0.1 µM
[9] = second compound 0.1 µM, first compound 0.316 µM
[10] = second compound 0.1 µM, first compound 1 µM
[11] = second compound 0.1 µM, first compound 3.16 µM
[12] = second compound 0.1 µM, first compound 10 µM
[13] = second compound 0.316 µM, first compound 0.0316 µM
[14] = second compound 0.316 µM, first compound 0.1 µM
[15] = second compound 0.316 µM, first compound 0.316 µM
[16] = second compound 0.316 µM, first compound 1 µM
[17] = second compound 0.316 µM, first compound 3.16 µM
[18] = second compound 0.316 µM, first compound 10 µM
[19] = second compound 1 µM, first compound 0.0316 µM
[20] = second compound 1 µM, first compound 0.1 µM
[21] = second compound 1 µM, first compound 0.316 µM
[22] = second compound 1 µM, first compound 1 µM
[23] = second compound 1 µM, first compound 3.16 µM
[24] = second compound 1 µM, first compound 10 µM
[25] = second compound 3.16 µM, first compound 0.0316 µM
[26] = second compound 3.16 µM, first compound 0.1 µM
[27] = second compound 3.16 µM, first compound 0.316 µM
[28] = second compound 3.16 µM, first compound 1 µM
[29] = second compound 3.16 µM, first compound 3.16 µM
[30] = second compound 3.16 µM, first compound 10 µM
[31] = second compound 10 µM, first compound 0.0316 µM
[32] = second compound 10 µM, first compound 0.1 µM
[33] = second compound 10 µM, first compound 0.316 µM
[34] = second compound 10 µM, first compound 1 µM
[35] = second compound 10 µM, first compound 3.16 µM
[36] = second compound 10 µM, first compound 10 µM
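Further: spheroids exposed to compounds for seven days.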
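Wherever viability, T/C is given: 100% = DMSO vehicle control viability.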

CC1COCCN1c1cc(C2(O)CC3CCC(C2)O3)c2cnn(-c3ccn[nH]3)c2n1 (stereo unspecified) + COC1C(OC(N)=O)C(O)C(Oc2ccc3c(O)c(NC(=O)c4ccc(O)c(CC=C(C)C)c4)c(=O)oc3c2C)OC1(C)C
IC50 (second compound 0.0316 µM): 0.295 µM | IC50 (second compound 0.1 µM): 0.428 µM | IC50 (second compound 0.316 µM): 0.425 µM | IC50 (second compound 1 µM): 0.425 µM | IC50 (second compound 3.16 µM): 0.299 µM | IC50 (second compound 10 µM): 0.195 µM | viability, T/C [1]: 93.4% | viability, T/C [2]: 68.8% | viability, T/C [3]: 53.1% | viability, T/C [4]: 25.5% | viability, T/C [5]: 18% | viability, T/C [6]: 9.03% | viability, T/C [7]: 94.5% | viability, T/C [8]: 78.5% | viability, T/C [9]: 56.9% | viability, T/C [10]: 30.9% | viability, T/C [11]: 21.2% | viability, T/C [12]: 8.19% | viability, T/C [13]: 94.7% | viability, T/C [14]: 74.1% | viability, T/C [15]: 57% | viability, T/C [16]: 35.4% | viability, T/C [17]: 17% | viability, T/C [18]: 9.09% | viability, T/C [19]: 93.8% | viability, T/C [20]: 79.3% | viability, T/C [21]: 57.2% | viability, T/C [22]: 30.6% | viability, T/C [23]: 17.5% | viability, T/C [24]: 9.21% | viability, T/C [25]: 82.1% | viability, T/C [26]: 67.2% | viability, T/C [27]: 51.3% | viability, T/C [28]: 26.3% | viability, T/C [29]: 14.9% | viability, T/C [30]: 8.05% | viability, T/C [31]: 90.5% | viability, T/C [32]: 62.4% | viability, T/C [33]: 41.8% | viability, T/C [34]: 22.8% | viability, T/C [35]: 19% | viability, T/C [36]: 7.81%

CCc1cc2c(N3CCc4c(cc(Cn5ccnc5)cc4-c4cn(C)nc4C(F)(F)F)C3=O)ccnc2c(OC)n1 + COC1C(OC(N)=O)C(O)C(Oc2ccc3c(O)c(NC(=O)c4ccc(O)c(CC=C(C)C)c4)c(=O)oc3c2C)OC1(C)C
IC50 (second compound 0.0316 µM): 8.38 µM | IC50 (second compound 0.1 µM): > 10 µM | IC50 (second compound 0.316 µM): 9.83 µM | IC50 (second compound 1 µM): 6.45 µM | IC50 (second compound 3.16 µM): > 10 µM | IC50 (second compound 10 µM): > 10 µM | viability, T/C [1]: 107% | viability, T/C [2]: 93.5% | viability, T/C [3]: 99.2% | viability, T/C [4]: 96.2% | viability, T/C [5]: 67.6% | viability, T/C [6]: 46.8% | viability, T/C [7]: 117% | viability, T/C [8]: 108% | viability, T/C [9]: 107% | viability, T/C [10]: 99.7% | viability, T/C [11]: 66.3% | viability, T/C [12]: 62.6% | viability, T/C [13]: 103% | viability, T/C [14]: 108% | viability, T/C [15]: 98.1% | viability, T/C [16]: 93.7% | viability, T/C [17]: 68.7% | viability, T/C [18]: 49.9% | viability, T/C [19]: 103% | viability, T/C [20]: 97.2% | viability, T/C [21]: 104% | viability, T/C [22]: 104% | viability, T/C [23]: 58.5% | viability, T/C [24]: 44.7% | viability, T/C [25]: 105% | viability, T/C [26]: 111% | viability, T/C [27]: 102% | viability, T/C [28]: 83% | viability, T/C [29]: 82.8% | viability, T/C [30]: 55.3% | viability, T/C [31]: 108% | viability, T/C [32]: 95.6% | viability, T/C [33]: 108% | viability, T/C [34]: 85.5% | viability, T/C [35]: 67.8% | viability, T/C [36]: 59%

Nc1ccn(C2OC(CO)C(O)C2(F)F)c(=O)n1 (stereo unspecified) + Cc1cccc(N(C)C(=O)C2C(O)CCN2c2nc(C)cc(C(F)(F)F)c2C#N)c1
IC50 (second compound 0.0316 µM): < 0.0316 µM | IC50 (second compound 0.1 µM): < 0.0316 µM | IC50 (second compound 0.316 µM): < 0.0316 µM | IC50 (second compound 1 µM): < 0.0316 µM | IC50 (second compound 3.16 µM): < 0.0316 µM | IC50 (second compound 10 µM): < 0.0316 µM | viability, T/C [1]: 35.5% | viability, T/C [2]: 20.8% | viability, T/C [3]: 14.7% | viability, T/C [4]: 18.1% | viability, T/C [5]: 17.1% | viability, T/C [6]: 10.2% | viability, T/C [7]: 41% | viability, T/C [8]: 23.8% | viability, T/C [9]: 15.2% | viability, T/C [10]: 15.9% | viability, T/C [11]: 14.9% | viability, T/C [12]: 11.3% | viability, T/C [13]: 31.9% | viability, T/C [14]: 20.5% | viability, T/C [15]: 14.2% | viability, T/C [16]: 15% | viability, T/C [17]: 16.9% | viability, T/C [18]: 14.1% | viability, T/C [19]: 28.1% | viability, T/C [20]: 25.9% | viability, T/C [21]: 20.2% | viability, T/C [22]: 16.2% | viability, T/C [23]: 14.3% | viability, T/C [24]: 10.8% | viability, T/C [25]: 24.6% | viability, T/C [26]: 22.5% | viability, T/C [27]: 15.8% | viability, T/C [28]: 16.5% | viability, T/C [29]: 17.8% | viability, T/C [30]: 11.1% | viability, T/C [31]: 31.1% | viability, T/C [32]: 19.1% | viability, T/C [33]: 20.3% | viability, T/C [34]: 22% | viability, T/C [35]: 20.5% | viability, T/C [36]: 11.4%
